ChEMBL document CHEMBL1150396, “New PPARgamma ligands based on 2-hydroxy-1,4-naphthoquinone: computer-aided design, synthesis, and receptor-binding studies” (Bioorg Med Chem Lett, 2008)

Experiments:
[1] = target: T1, Peroxisome proliferator-activated receptor gamma (Rattus norvegicus, UniProt O88275); assay: Displacement of [3H]rosigliatzone from PPARgamma in rat adipocytes; type: cell-based
T1 sequence (O88275 whole entry): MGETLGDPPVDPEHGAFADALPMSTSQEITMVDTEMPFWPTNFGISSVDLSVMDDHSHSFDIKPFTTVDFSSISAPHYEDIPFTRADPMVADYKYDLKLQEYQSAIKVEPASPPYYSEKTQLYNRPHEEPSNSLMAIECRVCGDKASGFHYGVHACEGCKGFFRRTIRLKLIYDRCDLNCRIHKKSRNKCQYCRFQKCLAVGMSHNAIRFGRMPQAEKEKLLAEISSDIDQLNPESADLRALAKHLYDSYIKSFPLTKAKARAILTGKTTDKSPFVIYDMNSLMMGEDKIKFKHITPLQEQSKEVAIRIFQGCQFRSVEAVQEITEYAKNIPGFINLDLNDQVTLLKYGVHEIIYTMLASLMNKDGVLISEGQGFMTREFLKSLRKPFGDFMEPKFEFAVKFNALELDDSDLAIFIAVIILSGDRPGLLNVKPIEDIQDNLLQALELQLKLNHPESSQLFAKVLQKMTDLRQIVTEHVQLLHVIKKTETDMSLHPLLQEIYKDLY

[2] = target: T2, Peroxisome proliferator-activated receptor gamma (Rattus norvegicus) (UniProt O88275); assay: Displacement of [3H]rosigliatzone from PPARgamma in rat adipocytes at 0.1 uM; type: cell-based
T2 sequence (whole entry): T1 sequence (O88275 whole entry)

Row | IC50 [1] [µM] | Activity [2] [%] | Compound
1 | – | < 20 | O=C1C(O)=C(Cc2ccc(OCCOc3cccc4ccccc34)cc2)C(=O)c2ccccc21
2 | 3.6 | – | O=C1C(O)=C(Cc2ccc(OCc3ccccc3)cc2)C(=O)c2ccccc21
3 | 0.2 | – | O=C1C(O)=C(Cc2ccc(OCc3ccccc3F)cc2)C(=O)c2ccccc21

The next lines start with the compound.

Row | Compound | IC50 [1] [µM] | Activity [2] [%]
4 | N#Cc1ccc(OCCOc2ccc(CC3=C(O)C(=O)c4ccccc4C3=O)cc2)cc1 | 1.9 | –
5 | O=C1C(O)=C(Cc2ccc(OCCOc3ccc4c(c3)CCC4)cc2)C(=O)c2ccccc21 | – | < 20
6 | Cc1ccc(OCCOc2ccc(CC3=C(O)C(=O)c4ccccc4C3=O)cc2)cc1 | – | < 20
7 | CCc1ccc(CCOc2ccc(CC3SC(=O)NC3=O)cc2)nc1 (centres undefined) [PIOGLITAZONE] | 0.7 | –
8 | O=C1C(O)=C(Cc2ccc(OCCOc3ccc(Cl)cc3)cc2)C(=O)c2ccccc21 | – | < 20
9 | COc1ccc(OCCOc2ccc(CC3=C(O)C(=O)c4ccccc4C3=O)cc2)cc1 | 56.2 | –
